Data published in patent US11566057B2, “Long-acting co-agonists of the glucagon and GLP-1 receptors” (Merck Sharp & Dohme Corp., priority 2017, dated 2023).
pEC50: −log10 of the molar value. Numbered stars: 1 amine (or outer) side, 2 acyl side, 3 side chain; on linkers, the order of the positions; unused ones are H or OH. Square brackets hold non-standard residues; d marks the D form. Side chains are listed from the residue outwards. Peptide text beside a SMILES is read from it. * marks the point of attachment. C20 diacid = O=C(O)CCCCCCCCCCCCCCCCCCC(=O)*; Phe(4-CH2NH2) = NCc1ccc(C[C@H](N)C(=O)O)cc1; C18 diacid = O=C(O)CCCCCCCCCCCCCCCCC(=O)*; γGlu = O=C(O)[C@H](CCC(=O)[*:2])N[*:1]; Met(O2) = CS(=O)(=O)CC[C@H](N)C(=O)O; PEG5 = NCCOCCOCCOCCOCCOCCC(=O)O; αMeD = C[C@](N)(CC(=O)O)C(=O)O; AEEA = NCCOCCOCC(=O)O; Aib = CC(C)(N)C(=O)O

Target: T1, human GCGR (Homo sapiens, UniProt P47871)
T1 construct: expressed in transfected cells; growth medium holds Blasticidin and Hygromycin
Assay: cAMP activity assay at the Glucagon receptor (GCGR)
Format: cell-based
Settings: for hGCGR/hGLP1R (hTone): ratio of GCGR EC50 to GLP1R EC50
Procedure: Activity of the peptides at the Glucagon receptor (GCGR) and GLP-1 receptor (GLP1R) was measured in a cAMP activity assay.
GCG/GLP-1 receptor co-agonist peptides were dissolved in 100% DMSO (dimethyl sulfoxide) and serially diluted to generate 10 point titrations. The peptide solutions were then transferred into 384-well assay plates (150 nL/well). Assay ready frozen cells expressing human GLP1R or human GCGR were suspended in growth media consisting of DMEM medium (GIBCO®), 10% FBS (GIBCO®), 1×NEAA(GIBCO®), 1×P/S (GIBCO®), 10 ug/mL Blasticidin (GIBCO®) and 200 μg/mL Hygromycin (GIBCO®). […] The cell suspensions (15 μL) were then added to the assay plates containing the peptide solutions (30,000 cells/well for human GCGR; 10,000 cells/well for human GLP1R). The cells were incubated for 1 hour at room temperature in the dark. Production of cAMP was determined using HitHunter™ cAMPXS kits (DiscoverX) following manufacturer protocol. The plates were incubated for overnight at room temperature in the dark. Luminescence was measured using an EnVision Multilabel plate reader (Perkin Elmer). Native GLP-1 and Glucagon (Bachem) are used as control peptides. EC50 values were calculated using uses a 4 parameter logistic fit based on the Levenberg-Marquardt algorithm.

T1 sequence (P47871 26-477): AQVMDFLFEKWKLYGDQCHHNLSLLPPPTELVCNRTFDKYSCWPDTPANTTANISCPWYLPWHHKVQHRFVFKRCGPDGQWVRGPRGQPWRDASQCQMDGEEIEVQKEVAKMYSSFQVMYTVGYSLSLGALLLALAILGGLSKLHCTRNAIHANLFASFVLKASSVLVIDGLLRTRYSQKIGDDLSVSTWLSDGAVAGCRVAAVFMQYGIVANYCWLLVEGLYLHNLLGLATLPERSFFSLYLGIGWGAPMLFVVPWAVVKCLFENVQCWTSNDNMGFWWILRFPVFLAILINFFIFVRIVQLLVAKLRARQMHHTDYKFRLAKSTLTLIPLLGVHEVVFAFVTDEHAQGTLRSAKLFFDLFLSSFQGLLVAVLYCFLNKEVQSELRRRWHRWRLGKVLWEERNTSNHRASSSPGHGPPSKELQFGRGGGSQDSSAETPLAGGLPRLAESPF

Compound	hGCGR/hGLP1R (hTone)	pEC50 (cells expressing human GCGR, cAMP production, buffer with or without 20% human serum (not stated which), read-out: GCGR EC50 human)
CCCCCCCCCCCCCCCc1cn(CCCC[C@H](NC(=O)[C@H](CC(=O)O)NC(=O)[C@H](CO)NC(=O)[C@@H](NC(=O)[C@H](Cc2ccccc2)NC(=O)[C@@H](NC(=O)CNC(=O)[C@H](CCC(N)=O)NC(=O)[C@@H](CO)NC(=O)[C@@H](N)Cc2c[nH]cn2)[C@@H](C)O)[C@@H](C)O)C(=O)N[C@@H](CO)C(=O)N[C@@H](CCCCN)C(=O)N[C@@H](Cc2ccc(O)cc2)C(=O)N[C@@H](CC(C)C)C(=O)N[C@@H](CC(=O)O)C(=O)N[C@@H](C)C(=O)N[C@@H](CCCNC(=N)N)C(=O)N[C@@H](C)C(=O)N[C@@H](C)C(=O)N[C@@H](CCC(N)=O)C(=O)N[C@@H](CC(=O)O)C(=O)N[C@@H](Cc2ccccc2)C(=O)N[C@H](C(=O)N[C@@H](CCC(N)=O)C(=O)N[C@@H](Cc2c[nH]c3ccccc23)C(=O)N[C@@H](CC(C)C)C(=O)N[C@@H](CC(C)C)C(=O)N[C@@H](CC(=O)O)C(=O)N[C@H](C(N)=O)[C@@H](C)O)C(C)C)nn1 [TP829]	1.56	
HsQGTFTSDNle(1,2,3-triazole-4-C4-Lys-C16)SKYLDARAAQDFVQWLLDT-NH2 (HXQGTFTSDXSKYLDARAAQDFVQWLLDT; D-Ser, Nle-triazole-C4-Lys-C16 lipid; C-terminal amide; peptide TP831; (2)..(2) Xaa is D-Serine; (10)..(10) Xaa is Nle(1,2,3-triazole-4-C4-Lys-C16); (29)..(29) Xaa is C-terminal amide)	1.66	
CC(C)C[C@H](NC(=O)[C@H](CC(C)C)NC(=O)[C@H](CCCCN)NC(=O)[C@H](CO)NC(=O)[C@H](Cc1ccc(O)cc1)NC(=O)[C@H](CC(=O)O)NC(=O)[C@H](CO)NC(=O)[C@@H](NC(=O)[C@H](Cc1ccccc1)NC(=O)[C@@H](NC(=O)CNC(=O)[C@H](CCC(N)=O)NC(=O)C(C)(C)NC(=O)[C@@H](N)Cc1c[nH]cn1)[C@@H](C)O)[C@@H](C)O)C(=O)N[C@@H](CC(=O)O)C(=O)N[C@@H](C)C(=O)N[C@@H](CCCNC(=N)N)C(=O)N[C@@H](C)C(=O)N[C@@H](C)C(=O)N[C@@H](CCCCNC(=O)COCCOCCNC(=O)COCCOCCNC(=O)CC[C@H](NC(=O)CCCCCCCCCCCCCCCCC(=O)O)C(=O)O)C(=O)N[C@@H](CC(=O)O)C(=O)N[C@@H](Cc1ccccc1)C(=O)N[C@H](C(=O)N[C@@H](CCC(N)=O)C(=O)N[C@@H](Cc1c[nH]c2ccccc12)C(=O)N[C@@H](CC(C)C)C(=O)N[C@@H](CCS(C)(=O)=O)C(=O)N[C@@](C)(CC(=O)O)C(=O)N[C@H](C(N)=O)[C@@H](C)O)C(C)C [TP640] (H-H[Aib]QGTFTSDYSKLLDARAAK([AEEA-AEEA-γGlu-C18 diacid])DFVQWL[Met(O2)][αMeD]T-NH2)	0.8	
CC(C)C[C@H](NC(=O)[C@H](Cc1ccc(O)cc1)NC(=O)[C@H](CCC(=O)O)NC(=O)[C@H](CO)NC(=O)[C@H](Cc1ccc(O)cc1)NC(=O)[C@H](CC(=O)O)NC(=O)[C@H](CO)NC(=O)[C@@H](NC(=O)[C@H](Cc1ccccc1)NC(=O)[C@@H](NC(=O)CNC(=O)[C@H](CCC(N)=O)NC(=O)C(C)(C)NC(=O)[C@@H](N)Cc1c[nH]cn1)[C@@H](C)O)[C@@H](C)O)C(=O)N[C@@H](CC(=O)O)C(=O)N[C@@H](CCCCN)C(=O)N[C@@H](CCCNC(=N)N)C(=O)N[C@@H](C)C(=O)N[C@@H](C)C(=O)N[C@@H](CCC(N)=O)C(=O)N[C@@H](CC(=O)O)C(=O)N[C@@H](Cc1ccccc1)C(=O)N[C@H](C(=O)N[C@@H](CCCCNC(=O)COCCOCCNC(=O)COCCOCCNC(=O)CC[C@H](NC(=O)CCCCCCCCCCCCCCCCC(=O)O)C(=O)O)C(=O)N[C@@H](Cc1c[nH]c2ccccc12)C(=O)N[C@@H](CC(C)C)C(=O)N[C@@H](CCS(C)(=O)=O)C(=O)N[C@@H](CC(=O)O)C(=O)N[C@H](C(N)=O)[C@@H](C)O)C(C)C [TP700] (H-H[Aib]QGTFTSDYSEYLDKRAAQDFVK([AEEA-AEEA-γGlu-C18 diacid])WL[Met(O2)]DT-NH2)		< 8.31
CC(C)C[C@H](NC(=O)[C@H](Cc1ccc(O)cc1)NC(=O)[C@H](CCCCN)NC(=O)[C@H](CO)NC(=O)[C@H](Cc1ccc(O)cc1)NC(=O)[C@H](CC(=O)O)NC(=O)[C@H](CO)NC(=O)[C@@H](NC(=O)[C@H](Cc1ccccc1)NC(=O)[C@@H](NC(=O)CNC(=O)[C@H](CCC(N)=O)NC(=O)C(C)(C)NC(=O)[C@@H](N)Cc1c[nH]cn1)[C@@H](C)O)[C@@H](C)O)C(=O)N[C@@H](CC(=O)O)C(=O)N[C@@H](C)C(=O)N[C@@H](CCCNC(=N)N)C(=O)N[C@@H](C)C(=O)N[C@@H](C)C(=O)N[C@@H](CCC(N)=O)C(=O)N[C@@H](CCCCNC(=O)CCOCCOCCOCCOCCOCCNC(=O)CC[C@H](NC(=O)CCCCCCCCCCCCCCCCC(=O)O)C(=O)O)C(=O)N[C@@H](Cc1ccccc1)C(=O)N[C@H](C(=O)N[C@@H](CCC(N)=O)C(=O)N[C@@H](Cc1c[nH]c2ccccc12)C(=O)N[C@@H](CC(C)C)C(=O)N[C@@H](CCS(C)(=O)=O)C(=O)N[C@@](C)(CC(=O)O)C(=O)N[C@H](C(N)=O)[C@@H](C)O)C(C)C [TP608] (H-H[Aib]QGTFTSDYSKYLDARAAQK([PEG5-γGlu-C18 diacid])FVQWL[Met(O2)][αMeD]T-NH2)	0.9	
CC(C)C[C@H](NC(=O)[C@H](CC(C)C)NC(=O)[C@H](CCCCN)NC(=O)[C@H](CO)NC(=O)[C@H](Cc1ccc(O)cc1)NC(=O)[C@H](CC(=O)O)NC(=O)[C@H](CO)NC(=O)[C@@H](NC(=O)[C@H](Cc1ccccc1)NC(=O)[C@@H](NC(=O)CNC(=O)[C@H](CCC(N)=O)NC(=O)C(C)(C)NC(=O)[C@@H](N)Cc1c[nH]cn1)[C@@H](C)O)[C@@H](C)O)C(=O)N[C@@H](CC(=O)O)C(=O)N[C@@H](C)C(=O)N[C@@H](CCCNC(=N)N)C(=O)N[C@@H](C)C(=O)N[C@@H](C)C(=O)N[C@@H](CCCCNC(=O)COCCOCCNC(=O)COCCOCCNC(=O)CC[C@H](NC(=O)CCCCCCCCCCCCCCCCC(=O)O)C(=O)O)C(=O)N[C@@H](CC(=O)O)C(=O)N[C@@H](Cc1ccccc1)C(=O)N[C@H](C(=O)N[C@@H](CCC(N)=O)C(=O)N[C@@H](Cc1c[nH]c2ccccc12)C(=O)N[C@@H](CC(C)C)C(=O)N[C@@H](CCS(C)(=O)=O)C(=O)N[C@@H](CC(=O)O)C(=O)N[C@H](C(N)=O)[C@@H](C)O)C(C)C [TP597] (H-H[Aib]QGTFTSDYSKLLDARAAK([AEEA-AEEA-γGlu-C18 diacid])DFVQWL[Met(O2)]DT-NH2; N-terminus assumed)	1.2	
CC(C)C[C@H](NC(=O)[C@H](Cc1ccc(O)cc1)NC(=O)[C@H](CCCCN)NC(=O)[C@H](CO)NC(=O)[C@H](Cc1ccc(O)cc1)NC(=O)[C@H](CC(=O)O)NC(=O)[C@H](CO)NC(=O)[C@@H](NC(=O)[C@H](Cc1ccccc1)NC(=O)[C@@H](NC(=O)CNC(=O)[C@H](CCC(N)=O)NC(=O)C(C)(C)NC(=O)[C@@H](N)Cc1c[nH]cn1)[C@@H](C)O)[C@@H](C)O)C(=O)N[C@@H](CC(=O)O)C(=O)N[C@@H](C)C(=O)N[C@@H](CCCNC(=N)N)C(=O)N[C@@H](C)C(=O)N[C@@H](C)C(=O)N[C@@H](CCC(N)=O)C(=O)N[C@@H](Cc1ccc(CNC(=O)COCCOCCNC(=O)COCCOCCNC(=O)CC[C@H](NC(=O)CCCCCCCCCCCCCCCCC(=O)O)C(=O)O)cc1)C(=O)N[C@@H](Cc1ccccc1)C(=O)N[C@H](C(=O)N[C@@H](CCC(N)=O)C(=O)N[C@@H](Cc1c[nH]c2ccccc12)C(=O)N[C@@H](CC(C)C)C(=O)N[C@@H](CC(C)C)C(=O)N[C@@](C)(CC(=O)O)C(=O)N[C@H](C(N)=O)[C@@H](C)O)C(C)C [TP609] (H-H[Aib]QGTFTSDYSKYLDARAAQ[Phe(4-CH2NH2)]([AEEA-AEEA-γGlu-C18 diacid])FVQWLL[αMeD]T-NH2; N-terminus assumed)	0.9	
CC(C)C[C@H](NC(=O)[C@H](Cc1ccc(O)cc1)NC(=O)[C@H](CCCCN)NC(=O)[C@H](CO)NC(=O)[C@H](Cc1ccc(O)cc1)NC(=O)[C@H](CC(=O)O)NC(=O)[C@H](CO)NC(=O)[C@@H](NC(=O)[C@H](Cc1ccccc1)NC(=O)[C@@H](NC(=O)CNC(=O)[C@H](CCC(N)=O)NC(=O)C(C)(C)NC(=O)[C@@H](N)Cc1c[nH]cn1)[C@@H](C)O)[C@@H](C)O)C(=O)N[C@@H](CC(=O)O)C(=O)N[C@@H](C)C(=O)N[C@@H](CCCNC(=N)N)C(=O)N[C@@H](C)C(=O)N[C@@H](C)C(=O)N[C@@H](CCC(N)=O)C(=O)N[C@@H](Cc1ccc(CNC(=O)COCCOCCNC(=O)COCCOCCNC(=O)CC[C@H](NC(=O)CCCCCCCCCCCCCCCCCCC(=O)O)C(=O)O)cc1)C(=O)N[C@@H](Cc1ccccc1)C(=O)N[C@H](C(=O)N[C@@H](CCC(N)=O)C(=O)N[C@@H](Cc1c[nH]c2ccccc12)C(=O)N[C@@H](CC(C)C)C(=O)N[C@@H](CC(C)C)C(=O)N[C@@H](CC(=O)O)C(=O)N[C@H](C(N)=O)[C@@H](C)O)C(C)C [TP585] (H-H[Aib]QGTFTSDYSKYLDARAAQ[Phe(4-CH2NH2)]([AEEA-AEEA-γGlu-C20 diacid])FVQWLLDT-NH2; N-terminus assumed)	2.0	
